Measured values published in patent publication US9096624B2 (OSI Pharmaceuticals, LLC, priority 2009, dated 2015).
Where “and” joins values, the source holds several entries; their conditions need not be identical. Equal entries are not always repeated.

Tests used:
FAK [1] = biological target: T1, FAK (Homo sapiens, UniProt Q05397); experiment: Cell-based capture ELISA for inhibition of FAK autophosphorylation [pY397] in U87MG cells
FAK [2] = biological target: T1, FAK; experiment: biochemical
FAK [3] = biological target: T1, FAK; experiment: Cell-based capture ELISA for inhibition of FAK autophosphorylation [pY397] in MiaPaCa2 cells; settings: MIA-PaCa2 cells, + 50% mouse plasma (Table 3); read-out: Mean FAK Cell Mechanistic IC50 + 50% mP MIA-PaCa2
Method: Cell-Based Assays for Inhibition of FAK Autophosphorylation: MiaPaCa2 and U87MG
ELISA kit from Invitrogen (KHO0441).
Reagents Provided in Biosource FAK [pY397]
The cells were then suspended in cell assay medium.

[4] = Mean FAK Cell Mechanistic IC50 + 50% mP U87MG, + 50% mouse plasma
[5] = U87MG FAK Cell Mech IC50 +hP, + human plasma
[6] = U87MG FAK Cell Mech IC50 +mP, + mouse plasma

T1 sequence (Q05397 whole entry): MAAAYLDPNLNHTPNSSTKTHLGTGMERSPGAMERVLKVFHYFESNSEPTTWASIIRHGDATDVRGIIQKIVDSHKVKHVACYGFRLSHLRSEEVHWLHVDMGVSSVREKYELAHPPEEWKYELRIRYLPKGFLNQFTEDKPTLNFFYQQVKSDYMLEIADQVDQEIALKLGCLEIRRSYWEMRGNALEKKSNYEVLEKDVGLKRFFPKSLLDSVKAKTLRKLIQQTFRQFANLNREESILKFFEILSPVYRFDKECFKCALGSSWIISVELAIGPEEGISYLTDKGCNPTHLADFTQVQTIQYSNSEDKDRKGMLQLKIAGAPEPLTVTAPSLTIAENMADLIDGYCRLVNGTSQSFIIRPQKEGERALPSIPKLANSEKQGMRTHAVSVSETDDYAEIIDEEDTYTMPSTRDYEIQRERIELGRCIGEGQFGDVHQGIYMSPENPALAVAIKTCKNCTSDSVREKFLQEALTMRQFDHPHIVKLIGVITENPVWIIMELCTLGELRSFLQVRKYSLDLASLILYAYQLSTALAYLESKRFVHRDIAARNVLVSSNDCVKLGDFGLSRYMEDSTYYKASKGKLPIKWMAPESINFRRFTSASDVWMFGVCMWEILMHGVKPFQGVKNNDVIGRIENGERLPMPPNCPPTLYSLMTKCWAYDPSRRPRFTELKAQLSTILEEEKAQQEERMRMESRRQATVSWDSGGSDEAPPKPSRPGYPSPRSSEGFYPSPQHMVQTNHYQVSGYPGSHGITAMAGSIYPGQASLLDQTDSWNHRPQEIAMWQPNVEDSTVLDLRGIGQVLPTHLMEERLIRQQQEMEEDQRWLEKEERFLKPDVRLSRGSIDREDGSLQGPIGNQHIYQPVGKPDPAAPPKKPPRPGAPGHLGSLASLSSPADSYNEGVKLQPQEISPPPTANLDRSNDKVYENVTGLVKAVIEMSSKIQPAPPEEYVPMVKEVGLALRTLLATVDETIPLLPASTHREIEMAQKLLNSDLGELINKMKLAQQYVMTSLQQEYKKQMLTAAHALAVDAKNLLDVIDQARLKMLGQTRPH

IC50 (FAK [1]; [5]) | IC50 (FAK [1]; [6]) | Compound | IC50 (FAK [1]; [4]) | IC50 (FAK [2]) | IC50 (FAK [3])
 |  | CCOP(=O)(Cc1ccc(Nc2ncc(C(F)(F)F)c(Nc3ccc(C4CCC(O)(C(=O)O)CC4)c4c3C(=O)N(C)C4)n2)c(OC)c1)OCC (single isomer, unassigned) [Example 278, 4-(7-{2-[4-(Diethoxy-phosphorylmethyl)-2-methoxy-phenylamino]-5-trifluoromethyl-pyrimidin-4-ylamino}-2-methyl-1-oxo-2,3-dihydro-1H-isoindol-4-yl)-1-hydroxy-cyclohexanecarboxylic acid] | 1000 to 10000 nM | < 1000 nM | 
> 4000 nM | 3.69 µM and > 4 µM (3×) | COc1cc(P(C)(C)=O)ccc1Nc1ncc(Cl)c(Nc2ccccc2C(=O)NC(C)C)n1 [Cpd A, reference compound] |  |  | 
> 4000 nM | 257 nM and 540 nM | COc1cc(P(C)(C)=O)ccc1Nc1ncc(Cl)c(Nc2cccc3c2C(=O)N(C)C3)n1 [Cpd B, reference compound] |  |  | 
 |  | CCOP(=O)(Cc1ccc(Nc2ncc(C(F)(F)F)c(Nc3c(F)cccc3C(=O)NC)n2)c(OC)c1)OCC [Example 154, Diethyl (4-{[4-{[2-fluoro-6-(methylcarbamoyl)phenyl]amino}-5-(trifluoromethyl)pyrimidin-2-yl]amino}-3-methoxybenzyl)phosphonate] | < 1000 nM | < 1000 nM | 
 |  | CCOP(=O)(Cc1ccc(Nc2ncc(C(F)(F)F)c(Nc3cccc(F)c3C(=O)NC)n2)c(OC)c1)OCC [Example 155, diethyl (4-{[4-{[3-fluoro-2-(methylcarbamoyl)phenyl]amino}-5-(trifluoromethyl)pyrimidin-2-yl]amino}-3-methoxybenzyl)phosphonate] | < 1000 nM | < 1000 nM | 
 |  | CCOP(=O)(Cc1ccc(Nc2ncc(C(F)(F)F)c(Nc3ccc([C@H]4CC[C@H](O)CC4)cc3C(=O)N(C)C)n2)c(OC)c1)OCC [Example 195, diethyl (4-{[4-{[2-(dimethylcarbamoyl)-4-(trans-4-hydroxycyclohexyl)phenyl]amino}-5-(trifluoromethyl)pyrimidin-2-yl]amino}-3-methoxybenzyl)phosphonate] | 1000 to 10000 nM | < 1000 nM | 
 |  | CCOP(=O)(CC)Cc1ccc(Nc2ncc(C(F)(F)F)c(Nc3ccc([C@H]4CC[C@H](O)CC4)c4c3C(=O)N(C)C4)n2)cc1 (stereo partly drawn) [Example 202, Ethyl ethyl(4-{[4-{[7-(trans-4-hydroxycyclohexyl)-2-methyl-3-oxo-2,3-dihydro-1H-isoindol-4-yl]amino}-5-(trifluoromethyl)pyrimidin-2-yl]amino}benzyl)phosphinate] | < 1000 nM | < 1000 nM | 
 |  | CCOP(=O)(Cc1ccc(Nc2ncc(C(F)(F)F)c(Nc3ccc(N4CC(O)C4)c4c3C(=O)N(C)C4)n2)c(OC)c1)OCC [Example 229, Diethyl (4-{[4-{[7-(3-hydroxyazetidin-1-yl)-2-methyl-3-oxo-2,3-dihydro-1H-isoindol-4-yl]amino}-5-(trifluoromethyl)pyrimidin-2-yl]amino}-3-methoxybenzyl)phosphonate] |  | < 1000 nM | < 1000 nM
 |  | CCOP(=O)(Cc1ccc(Nc2ncc(C(F)(F)F)c(Nc3ccc([C@H]4CC[C@H](O)CC4)nc3C(=O)NC)n2)c(OC)c1)OCC [Example 232, Diethyl (4-{[4-{[6-(trans-4-hydroxycyclohexyl)-2-(methylcarbamoyl)pyridin-3-yl]amino}-5-(trifluoromethyl)pyrimidin-2-yl]amino}-3-methoxybenzyl)phosphonate] |  | < 1000 nM | < 1000 nM
 |  | CCOP(=O)(Cc1ccc(Nc2ncc(C(F)(F)F)c(Nc3ccc(C4CCC(N(C)C)CC4)c4c3C(=O)N(C)C4)n2)c(OC)c1)OCC (stereo not drawn) [Example 233, Diethyl (4-{[4-({7-[4-(dimethylamino)cyclohexyl]-2-methyl-3-oxo-2,3-dihydro-1H-isoindol-4-yl}amino)-5-(trifluoromethyl)pyrimidin-2-yl]amino}-3-methoxybenzyl)phosphonate] |  | < 1000 nM | < 1000 nM
 |  | CCOP(=O)(Cc1ccc(Nc2ncc(C(F)(F)F)c(Nc3ccc([C@H]4CC[C@H](N5CCN(C(C)=O)CC5)CC4)c4c3C(=O)N(C)C4)n2)c(OC)c1)OCC [Example 238, diethyl (4-{[4-({7-[trans-4-(4-acetylpiperazin-1-yl)cyclohexyl]-2-methyl-3-oxo-2,3-dihydro-1H-isoindol-4-yl}amino)-5-(trifluoromethyl)pyrimidin-2-yl]amino}-3-methoxybenzyl)phosphonate] |  | < 1000 nM | < 1000 nM
 |  | CCOP(=O)(Cc1ccc(Nc2ncc(C(F)(F)F)c(Nc3ccc(C4CCC(N5CCCC5)CC4)c4c3C(=O)N(C)C4)n2)c(OC)c1)OCC (stereo not drawn) [Example 242] |  | < 1000 nM | < 1000 nM
 |  | CCOP(=O)(Cc1ccc(Nc2ncc(C(F)(F)F)c(Nc3ccc([C@@H]4C[C@@H](O)[C@@H](O)C4)c4c3C(=O)N(C)C4)n2)c(OC)c1)OCC [Example 243, Diethyl (4-{[4-({7-[-3,4-dihydroxycyclopentyl]-2-methyl-3-oxo-2,3-dihydro-1H-isoindol-4-yl}amino)-5-(trifluoromethyl)pyrimidin-2-yl]amino}-3-methoxybenzyl) phosphonate] |  | < 1000 nM | < 1000 nM
 |  | CCOc1cc(CP(=O)(OCC)OCC)ccc1Nc1ncc(C(F)(F)F)c(Nc2ccc([C@H]3CC[C@@H](C(=O)OCC)CC3)c3c2C(=O)N(C)C3)n1 [Example 244, Ethyl cis-4-(7-{[2-({4-[(diethoxyphosphoryl)methyl]-2-ethoxyphenyl}amino)-5-(trifluoromethyl)pyrimidin-4-yl]amino}-2-methyl-1-oxo-2,3-dihydro-1H-isoindol-4-yl)cyclohexanecarboxylate] |  | < 1000 nM | 1000 to 10000 nM
 |  | CCOc1cc(CP(=O)(OCC)OCC)ccc1Nc1ncc(C(F)(F)F)c(Nc2ccc([C@H]3CC[C@H](C(=O)OCC)CC3)c3c2C(=O)N(C)C3)n1 [Example 245, Ethyl trans-4-(7-{[2-({4-[(diethoxyphosphoryl)methyl]-2-ethoxyphenyl}amino)-5-(trifluoromethyl)pyrimidin-4-yl]amino}-2-methyl-1-oxo-2,3-dihydro-1H-isoindol-4-yl)cyclohexanecarboxylate] |  | < 1000 nM | 1000 to 10000 nM
 |  | CCOP(=O)(Cc1ccc(Nc2ncc(C(F)(F)F)c(Nc3ccc(C4CCNCC4)c4c3C(=O)N(C)C4)n2)cc1)OCC [Example 247, Diethyl (4-{[4-{[2-methyl-3-oxo-7-(piperidin-4-yl)-2,3-dihydro-1H-isoindol-4-yl]amino}-5-(trifluoromethyl)pyrimidin-2-yl]amino}benzyl)phosphonate] |  | < 1000 nM | < 1000 nM
 |  | CCOP(=O)(Cc1ccc(Nc2ncc(Cl)c(Nc3ccc([C@H]4CC[C@H](O)CC4)c4c3C(=O)N(C)C4)n2)c(OC)c1)OCC [Example 250, Diethyl {4-[(5-chloro-4-{[7-(trans-4-hydroxycyclohexyl)-2-methyl-3-oxo-2,3-dihydro-1H-isoindol-4-yl]amino}pyrimidin-2-yl)amino]-3-methoxybenzyl}phosphonate] |  | < 1000 nM | < 1000 nM
 |  | CCOP(=O)(Cc1ccc(Nc2ncc(C(F)(F)F)c(Nc3ccc(N4CCN(CC(=O)O)CC4)c4c3C(=O)N(C)C4)n2)cc1)OCC [Example 251, [4-(7-{[2-({4-[(Diethoxyphosphoryl)methyl]phenyl}amino)-5-(trifluoromethyl)pyrimidin-4-yl]amino}-2-methyl-1-oxo-2,3-dihydro-1H-isoindol-4-yl)piperazin-1-yl]acetic acid] |  | < 1000 nM | < 1000 nM
 |  | CCOP(=O)(Cc1ccc(Nc2ncc(C(F)(F)F)c(Nc3ccc(C4CCN(C)CC4)c4c3C(=O)N(C)C4)n2)cc1)OCC [Example 253, Diethyl (4-{[4-{[2-methyl-7-(1-methylpiperidin-4-yl)-3-oxo-2,3-dihydro-1H-isoindol-4-yl]amino}-5-(trifluoromethyl)pyrimidin-2-yl]amino}benzyl)phosphonate] |  | < 1000 nM | < 1000 nM
 |  | CCOP(=O)(Cc1ccc(Nc2ncc(C(F)(F)F)c(Nc3ccc(N4CCC(C(=O)O)CC4)c4c3C(=O)N(C)C4)n2)c(OC)c1)OCC [Example 256, 1-(7-{[2-({4-[(Diethoxyphosphoryl)methyl]-2-methoxyphenyl}amino)-5-(trifluoromethyl)pyrimidin-4-yl]amino}-2-methyl-1-oxo-2,3-dihydro-1H-isoindol-4-yl)piperidine-4-carboxylic acid] | < 1000 nM | < 1000 nM | 
 |  | CCOc1cc(CP(=O)(OCC)OCC)ccc1Nc1ncc(C(F)(F)F)c(Nc2ccc([C@H]3CC[C@@H](C(=O)O)CC3)c3c2C(=O)N(C)C3)n1 [Example 257, cis-4-(7-{[2-({4-[(Diethoxyphosphoryl)methyl]-2-ethoxyphenyl}amino)-5-(trifluoromethyl)pyrimidin-4-yl]amino}-2-methyl-1-oxo-2,3-dihydro-1H-isoindol-4-yl)cyclohexanecarboxylic acid] |  | < 1000 nM | < 1000 nM
 |  | CCOc1cc(CP(=O)(OCC)OCC)ccc1Nc1ncc(C(F)(F)F)c(Nc2ccc([C@H]3CC[C@H](C(=O)O)CC3)c3c2C(=O)N(C)C3)n1 [Example 258, Trans-4-(7-{[2-({4-[(diethoxyphosphoryl)methyl]-2-ethoxyphenyl}amino)-5-(trifluoromethyl)pyrimidin-4-yl]amino}-2-methyl-1-oxo-2,3-dihydro-1H-isoindol-4-yl)cyclohexanecarboxylic acid] |  | < 1000 nM | < 1000 nM
 |  | CCOP(=O)(Cc1ccc(Nc2ncc(C(F)(F)F)c(Nc3ccccc3C(=O)O)n2)c(OC)c1)OCC [Example 290, 2-{[2-({4-[(Diethoxyphosphoryl)methyl]-2-methoxyphenyl}amino)-5-(trifluoromethyl)pyrimidin-4-yl]amino}benzoic acid] | 1000 to 10000 nM |  | 
